Entries after “also recorded” stand apart in the source; their conditions may differ. Where two headings read alike, the source gives them in different places. Values belong to the compound of their own block, whether it stands above or below them. Non-standard residues stand in square brackets, D forms with d.
How the values were obtained:
[1] = system: differentiated HL-60 cells; assay: Uptake of DIG conjugates by differentiated HL-60 cells (DIG ELISA); assay type: cell-based, human; conditions: 333 nM, 30 min, 37° C.
Procedure: (§1) Uptake by HL-60, Jurkat and Peritoneal Cells. Human Jurkat T-cell growth conditions were the same as for HL-60 cells, except that the subcultivation ratio was 1:3. Jurkat cells (2×10^5) or fully differentiated HL-60 cells were washed twice with PBS and incubated in binding buffer (see above) with conjugate for 30 min at 37° C. Each conjugate (1 μg, dissolved at a concentration of 333 nM) was used in these experiments. Cells were lysed, the membranes and cell debris were removed by centrifugation (5 min. at 14,000×g) and the enzyme-linked immunosorbent assay (ELISA) for DIG was performed on the supernatant as described below. In order to study primary peritoneal cells, BALB/c mice were injected in the peritoneal cavity with 5 μg of PEG/A-DIG4-fMLF4 (n=3 mice), or PEG/A-DIG4 (n=4 mice). After 1 h, the cavity was flushed with medium and cells were collected and washed twice with cold PBS, as described above.
(§2) Cells were resuspended in 100 μL of PBS, containing 0.6% Tween 20, vortexed briefly and kept on ice for 30 min. […] Uptake of DIG was determined by ELISA of the supernatant. […] DIG content was proportional to the difference in absorbance at 495 nm and 450 nm. […] In order to account for the potential different amounts of peritoneal cells from each mouse, the results were normalized to the amount of protein, as measured with the Bradford assay (BioRad, Hercules Calif.).

[2] = system: peritoneal cells (macrophages); assay: Uptake by peritoneal cells after intraperitoneal injection (DIG ELISA); assay type: in vivo, BALB/c mice
Procedure: as §1, §2

[3] = system: differentiated HL-60 cells; assay: Intracellular calcium assay (45Ca release from intracellular stores); assay type: cell-based, human; conditions: differentiated HL-60 cells, calcium release; read-out: Cell Activation EC50
Procedure: Intracellular Calcium Assay. HL-60 cells (2×10^5 cells/mL) were grown in the presence of 1.3% DMSO for 5 days. For each time course experiment, 2×10^6 cells were resuspended in 5 mL of HBSS containing 2 mCi/mL of ^45CaCl2 as the sole source of calcium. After 90 min incubation at 37° C., cells were washed twice as above with cold HBSS. […] Cell pellets were treated with 0.5% Triton X-100/0.1 M NaOH and centrifuged in tubes containing 0.3 mL of 10% sucrose and radioactivity associated with the pellets was measured; this represents vesicle-associated ^45Ca. The top portion of the tube, which contained the cytoplasmic ^45Ca was also measured.

[4] = molecular target: T1, fMLF receptor on differentiated HL-60 cells (Homo sapiens, UniProt P21462); assay: Competitive receptor binding assay with fML[3H]F
T1 construct: endogenous in cells; host or cells: HL-60 cells differentiated with 1.3% DMSO for 48 h; whole cells
T1 sequence (P21462 1-350): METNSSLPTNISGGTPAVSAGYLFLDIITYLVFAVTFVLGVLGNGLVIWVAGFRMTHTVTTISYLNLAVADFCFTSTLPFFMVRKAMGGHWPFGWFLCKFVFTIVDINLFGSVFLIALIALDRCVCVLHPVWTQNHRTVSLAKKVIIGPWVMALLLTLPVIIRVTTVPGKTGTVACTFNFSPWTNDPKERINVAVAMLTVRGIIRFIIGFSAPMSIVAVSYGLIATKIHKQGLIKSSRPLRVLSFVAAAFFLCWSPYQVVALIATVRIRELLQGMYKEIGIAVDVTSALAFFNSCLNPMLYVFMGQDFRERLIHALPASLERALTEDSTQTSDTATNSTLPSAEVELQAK
Procedure: Competitive Receptor Binding Assay. HL-60 cells were propagated in RPMI 1640 supplemented with 2 mM L-glutamine and 10% (v/v) heat-inactivated fetal bovine serum, and were subcultured every 3 days at a ratio of 1:4. Cells were grown at 37° C. in an atmosphere of 5% CO2. Dimethyl sulfoxide (DMSO, 1.3%) was added to the culture (3×10^5 cells/mL) 48 h before the binding assay to initiate cellular differentiation. […] The cells were incubated for 15 min at 37° C. with gentle shaking. They were collected by centrifugation at 3,000 g for 5 min at room temperature. The supernatant was removed and cells were resuspended in 0.1 mL of binding buffer and carefully added to the very top of tubes (Denville Scientific, South Plainfield, N.J., catalog #C19002) that contained 0.3 mL of 10% sucrose. They were centrifuged for 5 min. The cells settled to the bottom and any unbound ligand remained in the middle of the tube. The tubes were placed in dry ice for 5 min, and then their bottoms were cut off to collect the cells. Cell-bound and free radioactivity were determined by liquid scintillation counting.

Jurkat T-cells = assay: Uptake of DIG conjugates by Jurkat cells (DIG ELISA); assay type: cell-based, human; conditions: 333 nM, 30 min
Procedure: as §1, §2

[5] = molecular target: T2, human sodium dependent multivitamin transporter, hSMVT (Homo sapiens, UniProt Q9Y289); assay: Uptake in CHO cells transiently transfected with hSMVT (CHO/hSMVT); conditions: not concentration dependent controls
T2 sequence (Q9Y289 1-635): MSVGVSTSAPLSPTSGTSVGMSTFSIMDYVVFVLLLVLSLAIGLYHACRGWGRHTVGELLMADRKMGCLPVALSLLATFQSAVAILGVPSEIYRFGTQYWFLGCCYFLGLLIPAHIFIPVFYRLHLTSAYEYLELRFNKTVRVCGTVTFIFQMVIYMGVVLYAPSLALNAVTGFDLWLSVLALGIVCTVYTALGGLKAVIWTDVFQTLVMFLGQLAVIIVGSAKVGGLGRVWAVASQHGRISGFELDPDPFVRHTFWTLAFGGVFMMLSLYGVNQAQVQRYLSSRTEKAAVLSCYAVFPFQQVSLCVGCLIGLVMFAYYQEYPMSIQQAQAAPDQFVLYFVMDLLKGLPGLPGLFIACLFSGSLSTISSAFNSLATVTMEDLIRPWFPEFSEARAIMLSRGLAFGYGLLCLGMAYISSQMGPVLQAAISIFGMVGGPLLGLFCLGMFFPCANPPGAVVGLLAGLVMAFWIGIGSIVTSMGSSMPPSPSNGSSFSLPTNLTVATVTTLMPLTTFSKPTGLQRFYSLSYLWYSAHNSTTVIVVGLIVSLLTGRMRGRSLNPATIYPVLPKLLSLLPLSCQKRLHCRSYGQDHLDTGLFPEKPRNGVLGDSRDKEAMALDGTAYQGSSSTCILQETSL
Procedure: (§3) CHO Cell Uptake Studies CHO cells transiently transfected with hSMVT (CHO/hSMVT) were washed twice with 25 mM uptake buffer, containing 25 mM Hepes/Tris pH 7.5, 140 mM NaCl, 5.4 mM KCl, 1.8 CaCl2, 0.8 mM MgSO4 and 5 mM glucose, approximately 48 hours post-transfection. Subsequently, the cells were incubated with the permeant at 37° C. for 10 minutes. Uptake was stopped by washing the cells thrice with ice-cold buffer. Non-specific uptake was measured in parallel experiments with the control pSPORT vector-transfected CHO cells. Finally, the cells were solubilized by 0.1% v/v Triton X-100, and 0.6 ml was used for scintillation counting. From the remaining volume, 10 μl of solution was taken from each well and protein concentration was determined using the Bio-Rad reagent according to the Bradford technique [M. Bradford, A rapid and sensitive method of quantitation of microgram quantities of protein utilizing the principle of protein-dye binding, Anal. Biochem. 72 (1976) 248]. Bovine serum albumin was used as the standard.
Parallel uptake experiments were performed using CHO/pSPORT control cells.
as §3, with “hSMVT” for “hSMVT (CHO/hSMVT)”, “glucose.” for “glucose, approximately 48 hours post-transfection.”, “Washing” for “Uptake was stopped by washing”, “three times” for “thrice”, “buffer stopped drug uptake.” for “buffer.”, “manufacturer's instructions.” for “Bradford technique [M. Bradford, A rapid and sensitive method of quantitation of microgram quantities of protein utilizing the principle of protein-dye binding, Anal. Biochem. 72 (1976) 248].”
as §3, with “Studies.” for “Studies”, “glucose.” for “glucose, approximately 48 hours post-transfection.”, “manufacturer's instructions.” for “Bradford technique [M. Bradford, A rapid and sensitive method of quantitation of microgram quantities of protein utilizing the principle of protein-dye binding, Anal. Biochem. 72 (1976) 248].”

CHO/pSPORT cells = assay: Non-specific uptake in vector-transfected control CHO/pSPORT cells
Procedure: as §3, with “From the remaining volume, 10 μl of solution was taken from each well and protein concentration was determined using the Bio-Rad reagent according to the Bradford technique [M. Bradford, A rapid and sensitive method of quantitation of microgram quantities of protein utilizing the principle of protein-dye binding, Anal. Biochem. 72 (1976) 248].” left out
CHO Cell Uptake Studies CHO cells transiently transfected with hSMVT were washed twice with 25 mM uptake buffer, containing 25 mM Hepes/Tris pH 7.5, 140 mM NaCl, 5.4 mM KCl, 1.8 CaCl2, 0.8 mM MgSO4 and 5 mM glucose. […] Non-specific uptake was measured in parallel experiments with the control pSPORT vector-transfected CHO cells. […] From the remaining volume, 10 μl of solution was taken from each well and protein concentration was determined using the Bio-Rad reagent according to the manufacturer's instructions. […]
CHO Cell Uptake Studies. […] Non-specific uptake was measured in parallel experiments with the control pSPORT vector-transfected CHO cells. […]

[6] = system: bovine brain microvessel endothelial cells (BBMECs); assay: Transport (permeability) across BBMEC monolayers, in vitro BBB model
Procedure: Non-biotinylated PEGs were used in the control studies.
Isolation and culture of BBMECs. Bovine Brain Microvessel Endothelial Cells (BBMECs) were used as an in vitro model of BBB. BBMECs were isolated from bovine brain by a two-step enzymatic method and the cells were cultured on collagen coated Transwell™ plates or polystyrene plates in an atmosphere of 95% air and 5% CO2 at 37° C. Transendothelial electrical resistance (TEER) and several molecular markers were used to validate the integrity of the cell culture system.
The cells were cultured on 12-well Transwell™ filters for 7-8 days and transport was evaluated. […] All studies were performed at 37° C.

superoxide production = conditions: literature value; read-out: EC50 for superoxide production (Klinker et al., 1996); cited from earlier work
SMVT [7] = molecular target: T3, SMVT (Homo sapiens, UniProt Q9Y289); conditions: read-out: Ki, competitive inhibition of RI-K(biotin)-Tat9 transport; Caco-2, inhibitors at 10 and 20 μM
T3 sequence (Q9Y289 1-635): T2 sequence (Q9Y289 1-635)
Description: [formula] where Pe is the effective permeability of the substrate transported, Cs is the substrate concentration and Pm and Pc represent the passive and carrier-mediated component of the permeability. All data were initially fitted to a 3-parameter model (Pc, Pm, Km for Caco-2 studies, Jmax, Pm, Km for CHO studies). […] The data from inhibition studies were transformed into Lineweaver-Burke plots to determine the nature of the inhibition process (competitive, non-competitive). Subsequently, the inhibition constant (Ki) values were estimated using Dixon plots. Data used for the above plots were weighted using 1/SEM^2 (S.E.M=Standard Error of Mean). The kinetic parameters for CHO cell studies were estimated by performing non-linear regression using the equation J=Jmax*[C]/(Km+[C])+Pm*C, where J is the rate of permeant uptake, Pm is the passive uptake component and [C] is the substrate concentration. Data were weighted using 1/S.E.M^2.

SMVT [8] = molecular target: T3, SMVT; conditions: read-out: Ki, competitive inhibition of biotin-PEG-3400 transport; Caco-2, inhibitors at 10 and 20 μM
Description: Data Analysis. The Michaelis-Menten kinetic parameters for the Caco-2 cell monolayer transport studies were estimated by performing weighted non-linear regression with Scientist software (MicroMath, Utah) using the following equation: Pe=Pm+Pc/(1+C/Km), where Pe is the effective permeability of the substrate transported, C is the substrate concentration and Pm and Pc represent the passive and carrier-mediated component of the permeability. The data from inhibition studies were transformed into Lineweaver-Burke plots to determine the nature of the inhibition process (competitive, non-competitive). […] Data used for the above plots were weighted using 1/S.E.M.^2. The kinetic parameters for CHO cell studies were estimated by performing non-linear regression using the equation J=Jmax*[C]/(Km+[C]), where J is the rate of permeant uptake, Jmax is the maximal uptake velocity and [C] is the substrate concentration. Data were weighted using 1/S.E.M.^2. Statistical analyses were performed using Jandel SigmaStat, version 2.03. One-way analysis of variance was used to test the difference in the mean values of uptake using p<0.05 as the significance level for all tests.

SMVT [9] = molecular target: T3, SMVT; assay: Inhibition of substrate uptake in CHO/hSMVT cells by 50 μM SMVT substrates; assay type: in vitro ADME; set-up: expressed in transfected cells; host or cells: CHO cells (ATCC), transient Lipofectamine transfection; plasmid was a gift of Dr. Puttur D. Prasad

Procedure for Caco-2 cell monolayers: Caco-2 Cell Transport Studies An Ussing-type diffusion chamber system (Harvard Apparatus, Natick, Mass.) was used to perform transport studies. The apical solution was a MES Ringer's buffer (pH 6.5) consisting of 114.0 mM NaCl, 5.0 mM KCl, 1.1 mM MgSO4, 1.25 mM CaSO4, and 15 mM 2-(N-morpholino)ethanesulfonic acid (MES). The basolateral solution was a Ringer's buffer (pH 7.4) consisting of 114.0 mM NaCl, 5.0 mM KCl, 1.65 mM Na2HPO4, 0.3 mM NaH2PO4, 25 mM NaHCO3, 1.1 mM MgSO4, and 1.25 mM CaSO4. Both buffers contained 25 mM glucose and were adjusted to 290 mOsm/kg using a vapor pressure osmometer (Wescor Inc, Logan, Utah). For transport experiments using filters with cell monolayers, the inserts were rinsed with Ringer's buffet containing 25 mM glucose three times over a 20 min period at room temperature. The TEER was measured for each monolayer before it was mounted onto the diffusion chamber, which was pre-warmed to 37° C. by placement on the heating blocks. The volume of each half-chamber was 5 ml and the surface area of the Snapwell™ filters available for drug transport was 1 cm^2. […] The donor solution consisted of radiolabeled permeant in the apical buffer [apical (AP) to basolateral (BL) study]. Starting at 30 min, samples were taken from the receptor chamber every 15 min until the end of the experiment (105 min). A minimum of three monolayers was used to determine the permeability of test compound in each study and sample analysis was performed using scintillation counting (Perkin Elmer, Gaithersburg, Md.).
The Michaelis-Menten kinetic parameters of Caco-2 and CHO cell transport were then estimated using non-linear regression.
Prior to experimentation, diffusion chambers mounted with the Snapwells™ containing Caco-2 cells were equilibrated at 5° C., 10° C., 15° C., 25° C. and 37° C.
[formula] where Pe is the effective permeability of the substrate transported, Cs is the substrate concentration and Pm and Pc represent the passive and carrier-mediated component of the permeability. All data were initially fitted to a 3-parameter model (Pc, Pm, Km for Caco-2 studies, Jmax, Pm, Km for CHO studies).
Caco-2 Cell Transport Studies An Ussing-type diffusion chamber system (Harvard Apparatus, Natick, Mass.) was used to perform transport studies. The apical solution was a MES Ringer's buffer (pH 6.5) consisting of 114.0 mM NaCl, 5.0 mM KCl, 1.1 mM MgSO4, 1.25 mM CaSO4, and 15 mM 2-(N-morpholino)ethanesulfonic acid (MES). The basolateral solution was a Ringer's buffer (pH 7.4) consisting of 114.0 mM NaCl, 5.0 mM KCl, 1.65 mM Na2HPO4, 0.3 mM NaH2PO4, 25 mM NaHCO3, 1.1 mM MgSO4, and 1.25 mM CaSO4. Both buffers contained 25 mM glucose and were adjusted to 290 mOsm/kg using a vapor pressure osmometer (Wescor Inc, Logan, Utah). For transport experiments using filters with cell monolayers, the inserts were rinsed with Ringer's buffer containing 25 mM glucose three times over a 20 min period at room temperature. The TEER was measured for each monolayer before it was mounted onto the diffusion chamber, which was pre-warned to 37° C. by placement on the heating blocks.

Compound: PEG/A-fMLF4-DIG4: linear PEG-aspartate copolymer bearing four fMLF and four digoxigenin residues
conjugate bound and/or internalized [1]: 18% | administered conjugate taken up by peritoneal cells ([2]; BALB/c mice, 5 μg i.p., 1 h): 17% | DIG accumulation, fold over non-targeted conjugate PEG/A-DIG8 ([2]; non-activated peritoneal cells): ~5 fold | EC50 [3]: 0.0059 µM | Kd ([4]; Kd multiplied by average number of fMLF moieties, read-out: Relative Avidity Kd/fMLP): 0.0048 µM | Kd ([4]; differentiated HL-60 cells, competition with fML[3H]F, read-out: Avidity Kd): 0.0012 µM | Avidity Activation EC50/Kd ([4]; ratio of EC50 (calcium) to Kd): 4.92 | conjugate accumulated (Jurkat T-cells): 1.3%

Compound: N-acetyl-D-Lys-D-Arg-D-Arg-D-Arg-D-Gln-D-Arg-D-Arg-D-Lys-D-Lys-D-Arg-NH2 (Ac-[dK][dR][dR][dR][dQ][dR][dR][dK][dK][dR]-NH2; SMILES CC(=O)N[C@H](CCCCN)C(=O)N[C@H](CCCNC(=N)N)C(=O)N[C@H](CCCNC(=N)N)C(=O)N[C@H](CCCNC(=N)N)C(=O)N[C@H](CCC(N)=O)C(=O)N[C@H](CCCNC(=N)N)C(=O)N[C@H](CCCNC(=N)N)C(=O)N[C@H](CCCCN)C(=O)N[C@H](CCCCN)C(=O)N[C@H](CCCNC(=N)N)C(N)=O) [RI-K-Tat9]
uptake in CHO/hSMVT cells [5]: < 1 pmol/mg protein/10 min | uptake in CHO/pSPORT cells (CHO/pSPORT cells): < 1 pmol/mg protein/10 min | Papp [6]: 7.3 ×10⁻⁶ cm/s

Compound: CSCC[C@H](NC=O)C(=O)N[C@@H](CC(C)C)C(=O)N[C@@H](Cc1ccccc1)C(=O)O [fMLF, N-formyl-methionine-leucine-phenylalanine]
EC50 (superoxide production): 0.015 to 0.03 µM

Compound: N[C@@H](CCCCNC(=O)CCCC[C@@H]1SC[C@@H]2NC(=O)N[C@@H]21)C(=O)O [biocytin]
Ki (SMVT [7]): 3.27 µM | Ki (SMVT [8]): 14 µM | inhibition of RI-K(biotin)-Tat9 uptake (SMVT [9]; 0.1 μM RI-K(biotin)-Tat9, inhibitor 50 μM): significantly inhibited; also recorded: significantly lowered (p<0.001) | inhibition of biotin-PEG-3400 uptake (SMVT [9]; 0.1 μM biotin-PEG-3400, inhibitor 50 μM): significantly (p<0.01) inhibited | inhibition of PEG:(RI-K(biotin)-Tat9)8 uptake (SMVT [9]; 0.1 μM conjugate, inhibitor 50 μM): significantly lower (p<0.05)

absorptive/effective permeability (Pe) (Caco-2 cell monolayers): ~1 ×10⁻⁶ cm/s
Compound: PEG-3350 [reference compound]

Source: patent publication US7740882B2, “Enhanced oral and transcompartmental delivery of therapeutic or diagnostic agents” (priority 2001, dated 2010)
